Data published in patent EP4574835A1, “AMORPHOUS FORM OF KETOAMIDE DERIVATIVE, AND PREPARATION METHOD THEREFOR” (Guangdong Raynovent Biotech Co., Ltd., priority 2022, dated 2024).

Assay: Pharmacokinetic model of mouse
Assay type: in vivo

For `O=C(NC1CCCC1)C(=O)[C@H](C[C@@H]1CCNC1=O)NC(=O)[C@@H]1[C@H]2CCC[C@H]2CN1C(=O)[C@@H](NC(=O)C(F)(F)F)C1CCCCC1` [Compound of Formula (I)], which clearance rate is on record?
The clearance rate was “lower”.

And the half-life?
The half-life was “longer”.
